The nature of the series: Determination of the maximum tolerated dose (MTD). The format is in vivo. As to conditions: mouse, in vivo, ip; single intraperitoneal administration, survival over 14 days, B6D2F1/Jico mice. Here is the method:
The evaluation of the maximum tolerated dose was carried out on 4- to 6-week-old B6D2F1/Jico mice. […] The value of the MTD (expressed in mg/kg) is determined from observing the survival rate of the animals over a period of 14 days after a single administration of the product under consideration. The change in the weight of the animals is also monitored over this period.
By MTD is commonly meant the largest dose that counted as tolerated. Read a high MTD as a wide tolerated range. Compound `O=C1c2nccc(Cl)c2-c2nc3ccccc3c3ccnc1c23` [CRL 8242, 12-Chlorobenzo[b]pyrido[4,3,2-de][1,7]phenanthroline-8-one] returned an MTD at 14 days greater than 160 mg/kg.
For the compound `COc1ccnc2c1C(=O)c1c(-c3ccccc3[N+](=O)[O-])ccnc1C2=O` [CRL 8243, 6-Methoxy-4-(2-nitrophenyl)pyrido[3,2-g]quinoline-5,10-dione], the MTD at 14 days is greater than 160 mg/kg.
Under `O=C1c2nccc(Cl)c2C(=O)c2c(-c3ccccc3NC(=O)C(F)(F)F)ccnc21` [CRL 8250, 6-Chloro-4-(2-trifluoroacetamidophenyl)pyrido[3,2-g]-quinoline-5,10-dione] stands 20 mg/kg; under `O=C(O)C(F)(F)F.O=C1c2nccc([N+](=O)[O-])c2-c2nc3ccccc3c3ccnc1c23` [CRL 8258, 12-Nitrobenzo[b]pyrido[4,3,2-de][1,7]phenanthroline-8-one Trifluoroacetate], 40 mg/kg.
As to `O=C(O)C(F)(F)F.O=C1c2nccc(Br)c2-c2nc3ccccc3c3ccnc1c23` [CRL 8259, 12-Bromobenzo[b]pyrido[4,3,2-de][1,7]phenanthroline-8-one Trifluoroacetate], the MTD at 14 days was found to be 40 mg/kg.
As to `O=C1c2nccc(-c3ccccc3NC(=O)C(F)(F)F)c2C(=O)c2c([N+](=O)[O-])ccnc21` [CRL 8267, 6-Nitro-4-(2-trifluoroacetamidophenyl)pyrido[3,2-g]-quinoline-5,10-dione], the MTD at 14 days amounted to 20 mg/kg.
Turning to `O=C1c2nccc([N+](=O)[O-])c2-c2nc3ccccc3c3ccnc1c23` [CRL 8273, 12-Nitrobenzo[b]pyrido[4,3,2-de][1,7]phenanthroline-8-one], the MTD at 14 days was greater than 80 mg/kg.
To `O=C1c2nccc(Cl)c2C(=O)c2c(-c3ccccc3[N+](=O)[O-])ccnc21` [CRL 8296, 6-Chloro-4-(2-nitrophenyl)pyrido[3,2-g]quinoline-5,10-dione] belongs 80 mg/kg; to `Nc1ccnc2c1C(=O)c1c(-c3ccccc3[N+](=O)[O-])ccnc1C2=O` [CRL 8300, 6-Amino-4-(2-nitrophenyl)pyrido[3,2-g]quinoline-5,10-dione], 80 mg/kg.
`CN(C)c1ccnc2c1C(=O)c1c(-c3ccccc3NC(=O)C(F)(F)F)ccnc1C2=O` [CRL 8426, 6-(Dimethylamino)-4-(2-trifluoroacetamidophenyl)pyrido-[3,2-g]quinoline-5,10-dione] gave an MTD at 14 days greater than 160 mg/kg.
With `CN(C)c1ccnc2c1-c1nc3ccccc3c3ccnc(c13)C2=O` [CRL 8427, 12-Dimethylaminobenzo[b]pyrido[4,3,2-de][1,7]phenanthroline-8-one], the MTD at 14 days was greater than 160 mg/kg.
Under `CC(=O)Nc1ccnc2c1C(=O)c1c(-c3ccccc3NC(=O)C(F)(F)F)ccnc1C2=O` [CRL 8428, 6-(Acetamido)-4-(2-trifluoroacetamidophenyl)pyrido-[3,2-g]quinoline-5,10-dione] stands greater than 160 mg/kg.
Under `O=C1c2nc(O)ccc2C(=O)c2c(-c3ccccc3NC(=O)C(F)(F)F)ccnc21` [CRL 8429, 8-Hydroxy-4-(2-trifluoroacetamidophenyl)pyrido[3,2-g]-quinoline-5,10-dione] stands 40 mg/kg; under `O=C1c2nc(O)ccc2-c2nc3ccccc3c3ccnc1c23` [CRL 8432, 10-Hydroxybenzo[b]pyrido[4,3,2-de][1,7]phenanthroline-8-one], greater than 160 mg/kg.

The record behind these values is patent US6583150B1, “Pharmaceutical composition based on polyaromatic compounds” (Laboratorie L. Lafon, priority 1999, dated 2003).
